Experimental findings from patent EP4692059A1, “CATIONIC LIPID HAVING DISULFIDE BOND” (Tohoku University, priority 2023, dated 2024) are described below.

The structures appear in SMILES notation.

A short description of data set [1]: Measurement of Liposomal pKa (TNS fluorescence, LNP without nucleic acid). To be noted: cationic lipid:DOPC:Chol = 52.5:7.5:40 (molar ratio) + DMG-PEG2k about 1.5 mol, pH at which the relative fluorescence intensity was 50%.
Experimental: Lipid nano particles (LNP) without containing nucleic acid were used for the evaluation of Liposomal pKa.
To the obtained mixture was further added DMG-PEG2k (2 mM ethanol solution) in an amount of about 1.5 mol with respect to the total amount 100 mol of cationic lipid, DOPC, and Chol, and then ethanol was added to prepare an ethanol solution of the lipid (total amount: 360 µL).
An acidic malic acid buffer (20 mM, pH 3.0) (1080 µL) containing NaCl at a final concentration of 30 mM and an ethanol solution (360 µL) of lipid were each weighed in a syringe. Using an ultra high-speed nanomedicament producing apparatus NanoAssmblr (manufactured by Precision NanoSystems), LNP was prepared under the conditions of addition rate of acidic buffer solution: 3 mL/min, addition rate of ethanol solution of lipid: 1 mL/min, and syringe holder temperature: 25°C, and collected in a 15 mL tube. […]
20 mM Citrate buffer, sodium phosphate buffer, and tris HCl buffer, each containing NaCl at a final concentration of 150 mM and adjusted to various pHs within the range of pH 3.0 to 10.0, were prepared. […] The relative fluorescence intensity was calculated as a percentage, with the maximum value of the fluorescence intensity in each LNP being 100% and the minimum value being 0%.
The nature of data set [2]: Particle size, PdI and zeta potential of mRNA-encapsulating LNPs by dynamic light scattering (Experimental Example 6). To be noted: mRNA-encapsulating LNP. It counts as physicochemical. As for the experimental part: An acidic buffer solution (total amount: 1300 µL) of nucleic acid was prepared by weighing 6.5 µg of mRNA solution (0.6 mg/mL) in a 5 mL tube and adding acidic citrate buffer (20 mM, pH 5.0).
An acidic buffer solution of nucleic acid and an ethanol solution of lipid were each weighed in a syringe. […] The obtained concentrate was diluted with TBS to a lipid concentration of 2 mM to give a dispersion containing LNP.
The particle size, PdI (Polydispersity Index), and zeta potential of the mRNA-encapsulating LNP prepared by the method of the above-mentioned 1 were measured by a dynamic light scattering method (Zetasizer Nano; Malvern). […]

For data set [3], the system named is liver. The data set can be described thus: In vivo gene expression, luciferase luminescence in the liver after tail vein administration (Experimental Example 7). To be noted: BALB/c mouse, mRNA 0.05 mg/kg. As for the experimental part: LNP encapsulating mRNA that expresses luciferase (cationic lipid:DOPC:Chol:DMG-PEG2k = 52.5:7.5:40:1.5 (molar ratio)) was prepared by the method described in [Experimental Example 6], 1.
The prepared each mRNA-encapsulating LNP dispersion was administered from the tail vein of BALB/c mouse (male, 5-week-old). The dose of mRNA was set to 0.05 mg per 1 kg body weight of the mouse, and the dose of the mRNA-encapsulating LNP dispersion was set to 10 µL per 1 g body weight of the mouse. After 4.5 hr from the administration of the mRNA-encapsulating LNP dispersion, a PBS solution of D-luciferin potassium was administered into the abdominal cavity of the mouse. The dose of D-luciferin potassium was set to 3 mg per mouse, and the dose of the PBS solution of D-luciferin potassium was set to 200 µL per mouse. After 15 min from the administration of the PBS solution of D-luciferin potassium, the mouse was euthanized, and the liver was isolated. The luminescence in the liver was quantified using an in vivo imaging system (IVIS) with an exposure of 10 sec. The amount of luminescence in the liver was quantified by image analysis using Live Imaging software attached to IVIS. The amount of luminescence (photons/sec) was calculated from the acquired image and used as an index of gene expression activity. The cationic lipids used, the luminescence intensity in the liver, and the relative luminescence intensity (= luminescence intensity in the liver when cationic lipid of Example was used/luminescence intensity in the liver when cationic lipid of Comparative Example was used) are shown in Table 9. For example, "3.94E+09" means "3.94×10^9". […]

Data set [4] deals with HeLa cells. Briefly: In vitro gene expression in HeLa cells (luciferase mRNA-encapsulating LNP, cumulative luminescence in 24 hr).
Experimental: LNP encapsulating mRNA that expresses luciferase (cationic lipid:DOPC:Chol:DMG-PEG2k = 50:10:40:1 (molar ratio)) was prepared by the method described in [Experimental Example 2], 1.
HeLa cells, which are human cervical cancer cells, were seeded in a 3.5 cm dish at 5.0×10^4 cells/2 mL/Dish 24 hours before transfection. After 24 hr, the medium was changed to a culture medium (D-MEM) containing 0.1 mM D-luciferin. The prepared mRNA-encapsulating LNP was diluted with PBS to an mRNA concentration of about 1 µg/mL. The diluted mRNA-encapsulating LNP solution (about 200 µL, mRNA: 0.2 µg) was added to a 3.5 cm dish, and set in an incubator luminometer KronosDio. The luminescence intensity of luciferase was measured for 2 min every one hour. The cumulative luciferase luminescence intensity in 24 hr was calculated from the obtained time change of expression. […] In Comparative Example, the cationic lipid described in Table 2 was used.
A short description of data set [5]: Particle size, PdI and zeta potential of mRNA-encapsulating LNPs by dynamic light scattering (Experimental Example 2). The data set is classed as physicochemical. To be noted: mRNA-encapsulating LNP containing the cationic lipid.
Data set [6] relates to mouse red blood cells. Briefly: Hemolysis activity (membrane fusion ability) at pH 7.4 and 5.5 (Experimental Example 5). The data set is classed as cell-based, ICR mice. To be noted: physiological pH (7.4); final lipid concentration 100 µM; Fig. 1. The protocol: LNPs encapsulating mRNA that expresses luciferase (cationic lipid:DOPC:Chol:DMG-PEG2k=52.5:7.5:40:1.5 (molar ratio)) were prepared using the method described in [Experimental Example 2] 1. As cationic lipid, the cationic lipid of Comparative Example, compound 9, compound 14, compound 27, compound 33, or compound 42 was used.
(§1) The collected blood was immediately mixed with 1.0 µL of heparin solution (5000 U/5 mL). About 9 mL of PBS was added to the blood to make the total volume 10 mL. The mixture was then mixed by inversion and centrifuged (4°C, 400 g, 10 min). The supernatant containing plasma components was removed using a Pasteur pipette. About 9 mL of PBS was added to the blood cell components to make the total volume 10 mL, and the mixture was centrifuged again. A similar washing procedure was repeated 4 times to obtain mouse red blood cells.
2, 4, 6, 8, and 10 µL of mouse red blood cells were weighed and diluted with PBS containing 1 w/v% Triton-X100. The entire diluted solution was transferred to a clear 96-well plate, and the absorbance at 545 nm was measured using a plate reader. A calibration curve was created using these samples, and the point where the absorbance reached 1 was determined as the amount of blood cells to be used in the hemolysis assay. Empty LNP solution was weighed into an Eppendorf tube and diluted with malic acid-PBS buffer (pH 5.5, pH 7.4), followed by addition of mouse red blood cells. The final lipid concentration was 100 µM at pH 7.4 and 33.3 µM at pH 5.5, and the final volume of the solution was 250 µL. Each tube was shaken at 1900 rpm for 15 min. Each sample was centrifuged under centrifugation conditions (4°C, 400 g, 5 min), and 100 µL of the supernatant was transferred to a clear 96-well plate and the absorbance at 545 nm was measured. Untreated red blood cells were used as the negative control. […] The hemolysis activity of each sample was calculated using the following formula: Hemolysis activity (%) = 100×(absorbance of each sample - absorbance of negative control)/(absorbance of positive control - absorbance of negative control).

The subject of data set [7] is mouse red blood cells. Briefly: Hemolysis activity (membrane fusion ability) at pH 7.4 and 5.5 (Experimental Example 8). To be noted: physiological pH (7.4); final lipid concentration 100 µM; Fig. 3. The data set is classed as cell-based, ICR mice. The protocol: LNP encapsulating mRNA that expresses luciferase (cationic lipid:DOPC:Chol:DMG-PEG2k = 52.5:7.5:40:1.5 (molar ratio)) was prepared by the method described in […], 1. As cationic lipid, the cationic lipid of Comparative Example, compound 94, compound 112, compound 162, compound 181, or compound 194 was used.
as §1
2, 4, 6, 8, and 10 µL of mouse red blood cells were weighed and diluted with PBS containing 1 w/v% Triton-X100. The entire diluted solution was transferred to a clear 96-well plate, and the absorbance at 545 nm was measured using a plate reader. A calibration curve was created using these samples, and the point where the absorbance reached 1 was determined as the amount of blood cells to be used in the hemolysis assay. Empty LNP solution was weighed into an Eppendorf tube and diluted with malic acid-PBS buffer (pH 5.5, pH 7.4), followed by addition of mouse red blood cells. The final lipid concentration was 100 µM at pH 7.4 and 33.3 µM at pH 5.5, and the final volume of the solution was 250 µL. Each tube was shaken at 1900 rpm for 15 min. Each sample was centrifuged under centrifugation conditions (4°C, 400 g, 5 min), and 100 µL of the supernatant was transferred to a clear 96-well plate and the absorbance at 545 nm was measured. Untreated red blood cells were used as the negative control. 1 w/v% Triton-X was used as the positive control. The hemolysis activity of each sample was calculated using the following formula: Hemolysis activity (%) = 100×(absorbance of each sample - absorbance of negative control)/(absorbance of positive control - absorbance of negative control).

Setting [8] is: cationic lipid:DOPC:Chol=49:7.5:42.5:1, dispersion in TBS, dynamic light scattering (Tables 8-1, 8-2).
The mark [9] stands for this setting: dispersion in PBS, dynamic light scattering (Table 5-3).

On to `CCCCCCCC/C=C\CCCCCCCC(=O)Oc1ccc(CC(=O)OCCC2CCN(CCSSCCN3CCC(CCOC(=O)Cc4ccc(OC(=O)CCCCCCC/C=C\CCCCCCCC)cc4)CC3)CC2)cc1` [Comparative Example, reference compound], for which the “Liposomal pKa” value in data set [1] is on record as 6.50. Also, the “zeta potential (mV)” value is -2.68 mV in data set [2] (cationic lipid:DOPC:Chol=49:7.5:42.5:1, dispersion in TBS (Tables 8-1, 8-2)) and -4.47 mV in data set [5] (dispersion in PBS (Table 5-3)). The values for the PdI in data set [2] (setting [8]) and in data set [5] (setting [9]) were 0.075 and 0.099, respectively. Also, the “particle size (nm)” value in data set [2] (setting [8]) is listed as 123.80 nm; in data set [5] (setting [9]) it was 108.70 nm. Further, the “amount of luminescence (photons/sec) in liver” value in data set [3] (tail vein, 4.5 hr after administration, LNP cationic lipid:DOPC:Chol:DMG-PEG2k = 52.5:7.5:40:1.5, prepared as in Experimental Example 6) is 2.05E+09 photons/sec. In data set [3] (liver luminescence relative to cationic lipid of Comparative Example), the “relative amount of luminescence” value is recorded as 1.00. Moreover, the “cumulative luciferase luminescence intensity (RLU) in 24 hr” value in data set [4] (LNP cationic lipid:DOPC:Chol:DMG-PEG2k = 50:10:40:1, mRNA 0.2 µg per dish, E+0a means 10^a) stood at 1.85E+07 RLU. The molecule also had a relative luminescence intensity in data set [4] (cumulative intensity in 24 hr relative to cationic lipid of Comparative Example) of 1.00. Further, the results for the hemolysis activity result in data set [6] and in data set [7] were “did not exhibit hemolysis activity” and “none”, respectively.
